Details: 101.33 kPa, Liquid, Hot wire method

Cc1ccc(C)cc1 [1,4-dimethylbenzene]
Details | thermal conductivity [W/m/K] | thermal diffusivity [m2/s]
287.33 K | 0.1296 | –
287.55 K | 0.1295 | –
287.73 K | 0.1294 | –
288.19 K | – | 8.96e-08
288.74 K | – | 8.89e-08
289.19 K | – | 8.92e-08
294.03 K | 0.1278 | –
294.27 K | 0.1278 | –
294.44 K | 0.1277 | –
294.86 K | – | 8.78e-08
295.48 K | – | 8.82e-08
295.9 K | – | 8.82e-08
311.71 K | 0.1234 | –
311.94 K | 0.1232 | –
312.11 K | 0.1231 | –
312.56 K | – | 8.41e-08
313.14 K | – | 8.38e-08
313.56 K | – | 8.36e-08
328.75 K | 0.1191 | –
328.99 K | 0.119 | –
329.16 K | 0.1189 | –
329.6 K | – | 8.03e-08
330.21 K | – | 8.02e-08
330.63 K | – | 8.01e-08

C=CCCCCC [1-heptene]
Details | thermal conductivity [W/m/K] | thermal diffusivity [m2/s]
262.46 K | 0.1325 | –
262.75 K | 0.1324 | –
262.97 K | 0.1324 | –
263.83 K | – | 9.06e-08
264.74 K | – | 9.11e-08
265.37 K | – | 9.1e-08
280.48 K | 0.1268 | –
280.8 K | 0.1267 | –
281.03 K | 0.1264 | –
281.93 K | – | 8.66e-08
282.87 K | – | 8.67e-08
283.53 K | – | 8.66e-08
297.36 K | 0.1213 | –
297.71 K | 0.1213 | –
297.95 K | 0.1212 | –
298.89 K | – | 8.27e-08
299.87 K | – | 8.27e-08
300.55 K | – | 8.25e-08
320.47 K | 0.1144 | –
320.83 K | 0.1143 | –
321.08 K | 0.1142 | –
322.07 K | – | 7.76e-08
323.1 K | – | 7.76e-08
323.81 K | – | 7.73e-08

C=CCCC [1-pentene]
Details | thermal conductivity [W/m/K] | thermal diffusivity [m2/s]
257.36 K | 0.1284 | –
257.67 K | 0.1283 | –
257.93 K | 0.1283 | –
258.93 K | – | 9.28e-08
259.91 K | – | 9.28e-08
260.57 K | – | 9.25e-08
276.47 K | 0.121 | –
276.82 K | 0.1209 | –
277.07 K | 0.1203 | –
278.11 K | – | 8.65e-08
279.18 K | – | 8.7e-08
279.9 K | – | 8.66e-08
294.04 K | 0.1141 | –
294.42 K | 0.1139 | –
294.66 K | 0.1139 | –
295.8 K | – | 8.2e-08
296.87 K | – | 8.16e-08
297.67 K | – | 8.16e-08
301.07 K | 0.1113 | –
301.46 K | 0.1112 | –
301.75 K | 0.1111 | –
302.88 K | – | 7.99e-08
303.99 K | – | 7.96e-08
304.8 K | – | 7.96e-08

C=C(C)C(C)C [2,3-dimethyl-1-butene]
Details | thermal conductivity [W/m/K] | thermal diffusivity [m2/s]
258.98 K | 0.117 | –
259.29 K | 0.1169 | –
259.4 K | 0.1168 | –
260.37 K | – | 8.17e-08
261.29 K | – | 8.19e-08
261.55 K | – | 8.16e-08
278.29 K | 0.1108 | –
278.63 K | 0.1106 | –
278.87 K | 0.1105 | –
279.73 K | – | 7.65e-08
280.7 K | – | 7.67e-08
281.39 K | – | 7.68e-08
294.18 K | 0.1058 | –
294.53 K | 0.1056 | –
294.78 K | 0.1055 | –
295.65 K | – | 7.3e-08
296.68 K | – | 7.29e-08
297.38 K | – | 7.28e-08
312.86 K | 0.1002 | –
313.23 K | 0.1 | –
313.5 K | 0.09991 | –
314.43 K | – | 6.88e-08
315.45 K | – | 6.84e-08
316.18 K | – | 6.83e-08
322.51 K | 0.0974 | –
322.9 K | 0.0973 | –
323.18 K | 0.0972 | –
324.07 K | – | 6.6e-08
325.17 K | – | 6.65e-08
325.9 K | – | 6.62e-08
326.52 K | 0.09639 | –
326.91 K | 0.09621 | –
327.21 K | 0.09612 | –
328.13 K | – | 6.58e-08
329.22 K | – | 6.58e-08
330.05 K | – | 6.62e-08

CC(C)=C(C)C [2,3-dimethyl-2-butene]
Details | thermal conductivity [W/m/K] | thermal diffusivity [m2/s]
258.89 K | 0.1356 | –
259.17 K | 0.1355 | –
259.37 K | 0.1354 | –
260.14 K | – | 9.38e-08
260.96 K | – | 9.41e-08
261.54 K | – | 9.41e-08
278.21 K | 0.1285 | –
278.5 K | 0.1283 | –
278.72 K | 0.1283 | –
279.54 K | – | 8.88e-08
280.38 K | – | 8.85e-08
281 K | – | 8.85e-08
294.09 K | 0.1228 | –
294.4 K | 0.1226 | –
294.63 K | 0.1225 | –
295.49 K | – | 8.48e-08
296.37 K | – | 8.44e-08
297.02 K | – | 8.45e-08
312.76 K | 0.1162 | –
313.09 K | 0.116 | –
313.34 K | 0.1159 | –
314.2 K | – | 7.96e-08
315.15 K | – | 7.95e-08
315.82 K | – | 7.94e-08
322.4 K | 0.1128 | –
322.74 K | 0.1126 | –
322.98 K | 0.1125 | –
323.81 K | – | 7.58e-08
324.73 K | – | 7.56e-08
325.39 K | – | 7.54e-08
326.42 K | 0.1116 | –
326.77 K | 0.1115 | –
327.02 K | 0.1114 | –
327.89 K | – | 7.6e-08
328.9 K | – | 7.63e-08
329.57 K | – | 7.59e-08

[2H]c1c([2H])c([2H])c([2H])c([2H])c1[2H] [benzene-d6]
Details | thermal conductivity [W/m/K] | thermal diffusivity [m2/s]
280.76 K | 0.1398 | –
281.06 K | 0.1397 | –
281.26 K | 0.1396 | –
282.09 K | – | 8.1e-08
282.98 K | – | 8.15e-08
283.58 K | – | 8.12e-08
291.53 K | 0.1364 | –
291.83 K | 0.1363 | –
292.04 K | 0.1362 | –
292.92 K | – | 7.93e-08
293.83 K | – | 7.96e-08
294.46 K | – | 7.95e-08
304.05 K | 0.1323 | –
304.37 K | 0.1322 | –
304.59 K | 0.1321 | –
305.49 K | – | 7.7e-08
306.42 K | – | 7.69e-08
307.08 K | – | 7.69e-08
316.34 K | 0.1284 | –
316.66 K | 0.1283 | –
316.89 K | 0.1282 | –
317.82 K | – | 7.46e-08
318.77 K | – | 7.45e-08
319.44 K | – | 7.44e-08
326.75 K | 0.1252 | –
327.08 K | 0.125 | –
327.31 K | 0.1249 | –
328.26 K | – | 7.25e-08
329.22 K | – | 7.23e-08
329.88 K | – | 7.2e-08

c1ccccc1 [benzene]
Details | thermal conductivity [W/m/K] | thermal diffusivity [m2/s]
281.18 K | 0.1464 | –
281.49 K | 0.1462 | –
281.76 K | 0.1461 | –
282.86 K | – | 9.74e-08
283.9 K | – | 9.74e-08
284.75 K | – | 9.72e-08
295.92 K | 0.1416 | –
296.25 K | 0.1414 | –
296.53 K | 0.1413 | –
297.67 K | – | 9.4e-08
298.78 K | – | 9.44e-08
299.68 K | – | 9.44e-08
301.25 K | 0.1399 | –
301.59 K | 0.1398 | –
301.87 K | 0.1396 | –
303.02 K | – | 9.29e-08
304.13 K | – | 9.31e-08
305.05 K | – | 9.29e-08
319.14 K | 0.134 | –
319.49 K | 0.1338 | –
319.79 K | 0.1337 | –
321.04 K | – | 8.97e-08
322.15 K | – | 8.92e-08
323.12 K | – | 8.9e-08

C1=CC2C=CC1C2 [bicyclo[2.2.1]hepta-2,5-diene]
Details | thermal conductivity [W/m/K] | thermal diffusivity [m2/s]
258.57 K | 0.1485 | –
258.7 K | 0.1484 | –
258.8 K | 0.1484 | –
258.99 K | – | 1.08e-07
259.32 K | – | 1.08e-07
259.55 K | – | 1.09e-07
276.78 K | 0.1426 | –
276.89 K | 0.143 | –
276.97 K | 0.1429 | –
277.21 K | – | 1.02e-07
277.47 K | – | 1.02e-07
277.66 K | – | 1.01e-07
296.23 K | 0.1371 | –
296.35 K | 0.1369 | –
296.43 K | 0.1368 | –
296.61 K | – | 9.43e-08
296.89 K | – | 9.44e-08
297.1 K | – | 9.45e-08
313.27 K | 0.1315 | –
313.38 K | 0.1314 | –
313.46 K | 0.1313 | –
313.63 K | – | 8.85e-08
313.9 K | – | 8.86e-08
314.1 K | – | 8.86e-08
331.81 K | 0.1256 | –
331.91 K | 0.1255 | –
331.98 K | 0.1254 | –
332.15 K | – | 8.25e-08
332.4 K | – | 8.25e-08
332.57 K | – | 8.24e-08

Source: the NIST ThermoML archive (doi:10.1021/je034162x)
